This note sets out measurements from patent US20210198277A1, “AMINE-SUBSTITUTED ARYL OR HETEROARYL COMPOUNDS” (Epizyme, Inc., priority 2016, published 2021).

The target in one assay is T1, EHMT2 (Homo sapiens, UniProt Q96KQ7).
T1 construct: host or cells: MDA-MB-231
T1 sequence (Q96KQ7 1-1210): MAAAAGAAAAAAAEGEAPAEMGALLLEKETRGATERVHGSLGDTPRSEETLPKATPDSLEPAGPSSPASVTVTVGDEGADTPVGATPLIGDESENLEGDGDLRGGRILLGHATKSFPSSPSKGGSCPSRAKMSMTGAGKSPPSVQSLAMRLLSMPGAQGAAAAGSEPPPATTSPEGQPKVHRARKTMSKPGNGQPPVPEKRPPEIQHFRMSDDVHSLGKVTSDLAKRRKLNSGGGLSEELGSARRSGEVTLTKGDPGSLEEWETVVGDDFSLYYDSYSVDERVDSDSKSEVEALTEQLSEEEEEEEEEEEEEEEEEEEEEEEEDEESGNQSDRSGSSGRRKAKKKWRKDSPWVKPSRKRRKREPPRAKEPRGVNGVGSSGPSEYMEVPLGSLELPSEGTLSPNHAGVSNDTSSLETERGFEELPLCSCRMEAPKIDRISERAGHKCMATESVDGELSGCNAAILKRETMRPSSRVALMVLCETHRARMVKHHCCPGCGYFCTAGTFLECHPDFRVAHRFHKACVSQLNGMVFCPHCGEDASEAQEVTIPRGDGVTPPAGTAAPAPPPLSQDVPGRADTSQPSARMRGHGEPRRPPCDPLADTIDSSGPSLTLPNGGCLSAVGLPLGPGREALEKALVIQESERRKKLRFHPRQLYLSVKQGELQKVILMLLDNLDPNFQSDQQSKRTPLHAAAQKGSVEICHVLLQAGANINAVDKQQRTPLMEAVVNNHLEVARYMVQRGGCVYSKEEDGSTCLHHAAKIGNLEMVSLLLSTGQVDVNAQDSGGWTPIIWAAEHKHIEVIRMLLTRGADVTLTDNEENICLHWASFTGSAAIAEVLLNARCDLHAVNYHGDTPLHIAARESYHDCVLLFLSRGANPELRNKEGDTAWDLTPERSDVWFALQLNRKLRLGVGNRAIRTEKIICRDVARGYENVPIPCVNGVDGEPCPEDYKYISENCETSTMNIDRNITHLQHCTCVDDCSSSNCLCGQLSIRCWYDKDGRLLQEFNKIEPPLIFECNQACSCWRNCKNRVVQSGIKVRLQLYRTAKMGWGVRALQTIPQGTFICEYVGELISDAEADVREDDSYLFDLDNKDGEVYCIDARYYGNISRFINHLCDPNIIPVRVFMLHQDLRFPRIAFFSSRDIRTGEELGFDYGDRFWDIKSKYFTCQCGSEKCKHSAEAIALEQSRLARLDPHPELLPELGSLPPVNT
The assay can be described thus: MDA-MB-231 H3K9me2 in-cell Western assay (EHMT2 ICW). It counts as cell-based. To be noted: Table III; MDA-MB-231 H3K9me2 in-cell Western; read-out: EHMT2 ICW (IC50 μM). The essentials:
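Cells seeded at 3,000/well onto pre-dispensed compound; 30 min RT, then 48 h 37 °C/5% CO2. PFA fix, block, α-H3K9me2 1:800 o/n 4 °C, 800CW secondary + DRAQ5. Odyssey scan 700/800 nm; ratio → % inhibition → 4-parameter IC50.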
The IC50 is the concentration that inhibits the measured activity by half. In the case of `COc1cnc(Nc2ccnc3[nH]ccc23)cc1OCCCN1CCCC1` [Compound 335, N-(5-methoxy-4-(3-(pyrrolidin-1-yl)propoxy)pyridine-2-yl)-1H-pyrrolo[2,3-b]pyridin-4-amine], the IC50 was 1 to 10 µM. The same measure, in the same setting: to `COc1ccc(Nc2ccc3ncc(C)n3n2)cc1OCCCN1CCCC1` [Compound 347] belongs more than 10 µM. Same read-out and setting: for `CNc1ccnc(Nc2ccc(OC)c(OCCCN3CC(F)C3)c2)n1` [Compound 354] the value was 1 to 10 µM. Same read-out and setting: to `CNc1cc(Nc2cc(OCCCN3CCCC3)c(OC)cn2)cnn1` [Compound 323, N^5-(5-methoxy-4-(3-(pyrrolidin-1-yl)propoxy)pyridin-2-yl)-N^3-methylpyridazine-3,5-diamine] belongs more than 10 µM. Regarding `CNc1nc(Nc2ccc(OC)c(OCCCN3CCCC3)c2)nc2c1CCC2` [Compound 328, N^2-(4-methoxy-3-(3-(pyrrolidin-1-yl)propoxy)phenyl)-N^4-methyl-6,7-dihydro-5H-cyclopenta[d]pyrimidine-2,4-diamine], the half-maximal inhibitory concentration (IC50) was in the range of 1 to 10 µM. Same read-out and setting: to `COc1ccc(Nc2ccnc(NCC3CCN(C(C)=O)CC3)n2)cc1OCCCN1CCCC1` [Compound 340] belongs more than 10 µM; to `CNc1cc(Nc2cc(OCCCN3CCCC3)c(OC)cn2)nc(C)n1` [Compound 325, N^4-(5-methoxy-4-(3-(pyrrolidin-1-yl)propoxy)pyridin-2-yl)-N^6,2-dimethylpyrimidine-4,6-diamine], 1 to 10 µM. On the same count and under the same terms, for `COc1ccc(Nc2cccc3ncnn23)cc1OCCCN1CCCC1` [Compound 344] the value was more than 10 µM. Regarding `COc1ccc(Nc2nccc(NCC3CCOCC3)n2)cc1OC1CCC2(CC1)CN(C)C2` [Compound 260, N^2-(4-methoxy-3-((2-methyl-2-azaspiro[3.5]nonan-7-yl)oxy)phenyl)-N^4-((tetrahydro-2H-pyran-4-yl)methyl)pyrimidine-2,4-diamine], the IC50 was more than 10 µM. Regarding `COc1ccc(Nc2cccc3cn(C)nc23)cc1OCCCN1CCCC1` [Compound 346], the IC50 was more than 10 µM. Still for that read-out and setting: for `COc1ccc(Nc2ccc3cnn(C)c3c2)cc1OCCCN1CCCC1` [Compound 341] the value was more than 10 µM.

For the molecule `COc1ccc(Nc2ccc3nn(C)cc3c2)cc1OCCCN1CCCC1` [Compound 345], the IC50 is more than 10 µM. On the same count and under the same terms, to `COc1ccc(Nc2ncc3ncn(C)c3n2)cc1OCCCN1CCCC1` [Compound 343] belongs more than 10 µM.

On to `COc1ccc(Nc2nccc(NCC3CCOCC3)n2)cc1NCCCN1CCCC1` [Compound 350], for which the IC50 lay in the range of 1 to 10 µM. For `CNc1cc(Nc2cc(OCCCN3CCCC3)c(OC)cn2)ncn1` [Compound 324, N^4-(5-methoxy-4-(3-(pyrrolidin-1-yl)propoxy)pyridin-2-yl)-N^6-methylpyrimidine-4,6-diamine], the half-inhibitory concentration (IC50) was more than 10 µM. The same measure, in the same setting: for `COc1ccc(Nc2ccc3ncn(C)c3n2)cc1OCCCN1CCCC1` [Compound 342] the value was more than 10 µM; for `CCn1nc(Nc2nccc3[nH]ccc23)cc1COCCN1CCCC1` [Compound 333], more than 10 µM. For the molecule `CNCc1cnc(Nc2ccc(OC)c(OCCCN3CCCC3)c2)nc1` [Compound 339], the IC50 is more than 10 µM. With `CNc1cc(C)nc(Nc2ccc(OC)c(O[C@H]3C[C@H](N(C)C)C3)c2)n1` (single isomer, unassigned) [Compound 329, N^2-(3-((1r,3r)-3-(dimethylamino)cyclobutoxy)-4-methoxyphenyl)-N^4,6-dimethylpyrimidine-2,4-diamine], the 50% inhibitory concentration (IC50) was more than 10 µM. Same read-out and setting: to `COc1ccc(NCCCN2CCCC2)cc1Nc1nccc(NCC2CCOCC2)n1` [Compound 352] belongs more than 10 µM; to `CNc1cnnc(Nc2cc(OCCCN3CCCC3)c(OC)cn2)c1` [Compound 322, N^3-(5-methoxy-4-(3-(pyrrolidin-1-yl)propoxy)pyridin-2-yl)-N^5-methylpyridazine-3,5-diamine], 0.1 to 1 µM; to `COc1cnc(Nc2nc(C)nc3[nH]ccc23)cc1OCCCN1CCCC1` [Compound 326, N-(5-methoxy-4-(3-(pyrrolidin-1-yl)propoxy)pyridin-2-yl)-2-methyl-7H-pyrrolo[2,3-d]pyrimidin-4-amine], 1 to 10 µM.

For `CNc1cc(C)nc(Nc2ccc(OC)c(OC[C@H]3C[C@H](N(C)C)C3)c2)n1` [Compound 330], the IC50 is more than 10 µM. The same measure, in the same setting: for `CNc1ccnc(Nc2ccc(OC)c(OCCCN3CC[C@@H](F)C3)c2)n1` [Compound 353] the value was 1 to 10 µM. The same measure, in the same setting: to `COc1ccc(Nc2ccc3cnn(C)c3n2)cc1OCCCN1CCCC1` [Compound 257, N-(4-methoxy-3-(3-(pyrrolidin-1-yl)propoxy)phenyl)-1-methyl-1H-pyrazolo[3,4-b]pyridin-6-amine] belongs more than 10 µM. Consider `COc1ccc(Nc2nccc(-c3cnn(C)c3)n2)cc1OCCCN1CCCC1` [Compound 348], for which the concentration for half-maximal inhibition (IC50) was more than 10 µM.

The assay is the same for the next values; noted with them: Table VI; read-out: EHMT2 ICW IC50.
Regarding `CNc1cc(C)nc(Nc2cc(OCCCN3CCCC3)c3oncc3c2)n1` [Compound 793], the IC50 was more than 10 µM. `CNc1cc(CC2CCOCC2)c2cc(OC)c(OCCCN3CCCC3)cc2n1` [Compound 823]: the half-maximal inhibitory concentration (IC50) was 0.1 to 1 µM. The same measure, in the same setting: to `COc1cc2c(C3CCOCC3)cc(N3CCCCC3)nc2cc1OCCCN1CCCC1` [Compound 824] belongs 1 to 10 µM; to `COc1cc2c(C3CCN(C)CC3)cc(C#N)nc2cc1OCCCN1CCCC1` [Compound 790], 1 to 10 µM.

For `CNc1cc(C)nc(Nc2ccc(OC)c(C#CC3CCN(C)C3)c2)n1` (centres unmarked) [Compound 847], the IC50 fell in the range of 1 to 10 µM. Same read-out and setting: to `COc1cnc(Nc2nccc3nccn23)cc1OC[C@@H]1CCNC1` [Compound 801] belongs more than 10 µM. Same read-out and setting: to `COc1cc(NC2CCOCC2)ncc1OCC1CCNC1` (centres unmarked) [Compound 806] belongs more than 10 µM; to `COc1cc2c(C3CCN([C@@H]4CCOC4)CC3)cc(C)nc2cc1OCCCN1CCCC1` [Compound 863], 0.1 to 1 µM; to `CNc1cc(C)c2cc(OC)c(C#CCN3CCCC3)cc2n1` [Compound 859], 0.1 to 1 µM. As to `COc1cc2c(C3CCOCC3)cc(N(C)C)nc2cc1OCCCN1CCCC1` [Compound 825], the half-maximal inhibitory concentration (IC50) lay in the range of 1 to 10 µM.

Regarding `COc1cc2c(C)cc(N3CCCCC3)nc2cc1OCCCN1CCCC1` [Compound 810], the IC50 lay in the range of 1 to 10 µM. On the same count and under the same terms, to `CNc1cc(C)nc(Nc2ccc(OC)c(C#CCN3CCN(C)CC3)c2)n1` [Compound 860] belongs more than 10 µM; to `COc1cnc(Nc2nn(C)c3cnccc23)cc1OCCCN1CCCC1` [Compound 795], more than 10 µM; to `COc1ccc(Nc2nc(C)cc(NC(C)C)n2)cc1OC[C@@H]1CCNC1` [Compound 800], 0.1 to 1 µM.

For the molecule `CNc1cc(C2CCCCC2)c2cc(OC)c(OCCCN3CCCC3)cc2n1` [Compound 816], the IC50 lay within 0.1 to 1 µM. As for `CNc1cc(C2CCN(C(C)=O)CC2)c2cc(OC)c(OCCCN3CCCC3)cc2n1` [Compound 809], the IC50 is 0.1 to 1 µM.

As for `COc1cc(N(C)C2CCOCC2)ncc1OCC1CCNC1` (centres unmarked) [Compound 808], the IC50 is more than 10 µM. Same read-out and setting: to `CNc1cc(C)nc(Nc2cnc(OC)c(OC[C@@H]3CCN(C4CCC4)C3)c2)n1` [Compound 798] belongs 0.1 to 1 µM; to `CNc1cc(C(C)C)c2cc(OC)c(OCCCN3CCCC3)cc2n1` [Compound 817], 0.1 to 1 µM. In the case of `CNc1cc(C2CCOCC2)c2cc(OC)c(OC[C@@H]3CCN(C)C3)cc2n1` [Compound 803], the IC50 fell in the range of 1 to 10 µM. With `CNc1cc(C2CCN(CCOC)CC2)c2cc(OC)c(OCCCN3CCCC3)cc2n1` [Compound 839], the half-inhibitory concentration (IC50) is less than 0.1 µM. Same read-out and setting: to `COc1ccc(Nc2cc(C)n(C)n2)cc1OCCCN1CCCC1` [Compound 797] belongs more than 10 µM; to `CNc1cc(C2CCN(CCC(F)(F)F)CC2)c2cc(OC)c(OCCCN3CCCC3)cc2n1` [Compound 832], less than 0.1 µM. Same read-out and setting: to `CNC(=O)c1cc(C)nc(Nc2ccc(OC)c(OCCCN3CCCC3)c2)n1` [Compound 854] belongs more than 10 µM; to `CNc1cc(C)nc(Nc2cc(OCCCN3CCCC3)c3nc(C)cn3c2)n1` [Compound 616], 1 to 10 µM. The same measure, in the same setting: for `COc1ccc(Nc2cc(C)[nH]n2)cc1OCCCN1CCCC1` [Compound 796] the value was more than 10 µM. `CNc1cc(C)nc(Nc2ccc(OC)c(CN[C@H]3CCNC3)c2)n1` [Compound 813]: the 50% inhibitory concentration (IC50) is more than 10 µM.
